Laboratory results: PubChem BioAssay AID720514 (Broad Institute, 2013)

Tested on: U2OS PGC1a acetylation, AlphaLISA, overnight
Assay: inhibitors of PGC1a acetylation in cells, dose response, cell-based, cherry-picked samples (AID 720514);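 also: actives lower the acetylation signal so they count as inhibitors of PGC1a acetylation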

Row | Compound | AC50
1 | C[C@H]1CN([C@@H](C)CO)C(=O)Cc2cc(NC(=O)Nc3ccccc3)ccc2O[C@@H]1CN(C)Cc1ccccc1 | 21.5 µM
2 | C[C@H]1[C@@H](OS(=O)(=O)O)C[C@@H]2C[C@H]([C@@H](O)c3cc(=O)[nH]c(=O)[nH]3)NC3=NC[C@H]1N32 | 3.65 µM
